Consider 19 molecules from US20230287003A1, “BCL6 INHIBITORS” (Cancer Research Technology Limited, priority 2018, published 2023).

For assay [1], the target named is BCL6-NCOR2(SMRT) corepressor protein-protein interaction (Homo sapiens (Human), UniProt P41182). As to the kind of experiment: NanoBRET cell assay. Type of assay: cell-based. The settings on record: for NanoBRET cell avg pIC50: HEK293T cells co-transfected with BCL6-nanoLuc and NCOR2-HaloTag, 6 hr incubation; for IC50: read-out: NanoBRET cell avg pIC50 (converted). An excerpt:
At 20 hr post-transfection, cells were collected, washed with PBS, and exchanged into media containing phenol red-free OptiMEM+4% FBS (Life Technology).
In general terms: In BRET a luciferase serves as donor, and the signal depends on an acceptor being close.

The target in assay [2] is human BCL6 BTB domain (Trx-6×His-BCL6) / BCOR-AF633 peptide (Homo sapiens (Human), UniProt P41182). Kind of assay: HTRF assay. Type of assay: binding. The settings on record: 1 nM Trx-6×His-BCL6, 300 nM BCOR-AF633 peptide, 2 hours incubation. (TR-FRET usually uses a lanthanide donor and a delayed reading to cut background.)
Experimental: The % inhibition at each concentration was calculated by normalising FRET ratio to the appropriate high (DMSO with all reagents) and low (DMSO without BCL6) controls.

For the molecule “(R)-10-((5-chloro-2-((3S,5R)-3-hydroxy-5- methylpiperidin-1-yl)pyrimidin-4-yl)amino)-2-cyclopropyl-7- methyl-1,2,3,4-tetrahydro-[1,4]oxazepino[2,3-c]quinolin-6(7H)-one or (R)-10-((5-chloro-2-((3R,5S)-3-hydroxy-5-methylpiperidin-1- yl)pyrimidin-4-yl)amino)-2-cyclopropyl-7-methyl-1,2,3,4-tetrahydro- [1,4]oxazepino[2,3-c]quinolin-6(7H)-one: formic acid (1:1) [Example 12d]”, the “NanoBRET cell avg pIC50” value in assay [1] worked out at 7.06. Also, the “HTRF avg pIC50 (1 nM)” value in assay [2] was found to be 7.74.

Take `Cn1c(=O)c2c(c3cc(Nc4nc(N5C6COCC5CC(C)(O)C6)ncc4Cl)ccc31)N[C@@H](C1CC1)CCO2` (stereo partly drawn) [Example 12h, (R)-10-((5-chloro-2-((1R,5S,7S)-7-hydroxy-7-methyl-3-oxa-9-azabicyclo[3.3.1]nonan-9-yl)pyrimidin-4-yl)amino)-2-cyclopropyl-7-methyl-1,2,3,4-tetrahydro-[1,4]oxazepino[2,3-c]quinolin-6(7H)-one]: the IC50 in assay [1] was 145 nM. In assay [2], the “HTRF avg pIC50 (1 nM)” value worked out at 7.93.

On to `Cn1c(=O)c2c(c3cc(Nc4ccnc(Cl)c4C#N)ccc31)NC(C1CC1)C(F)(F)CO2` (centres unmarked) [Example 1q, 2-chloro-4-((2-cyclopropyl-3,3-difluoro-7-methyl-6-oxo-1,2,3,4,6,7-hexahydro-[1,4]oxazepino[2,3-c]quinolin-10-yl)amino)nicotinonitrile], for which, in assay [1], the IC50 was 30.2 nM. In addition, the “HTRF avg pIC50 (1 nM)” value in assay [2] is reported as 8.35.

Take `Cn1c(=O)c2c(c3cc(Nc4nc(N5CC6CCC(C5)O6)ncc4Cl)ccc31)N[C@@H](C1CC1)CCO2` [Example 12g, (R)-10-((2-(8-oxa-3-azabicyclo[3.2.1]octan-3-yl)-5-chloropyrimidin-4-yl)amino)-2-cyclopropyl-7-methyl-1,2,3,4-tetrahydro-[1,4]oxazepino[2,3-c]quinolin-6(7H)-one]: the IC50 in assay [1] is 776 nM. The “HTRF avg pIC50 (1 nM)” value in assay [2] came to 7.54.

On to `Cn1c(=O)c2c(c3cc(Nc4ccnc(Cl)c4C#N)ccc31)N[C@@H](C1CC1)CCS2(=O)=O` [Example 1u, (R)-2-chloro-4-((2-cyclopropyl-7-methyl-5,5-dioxido-6-oxo-1,2,3,4,6,7-hexahydro-[1,4]thiazepino[2,3-c]quinolin-10-yl)amino)nicotinonitrile], for which the IC50 in assay [1] was 3090 nM. Moreover, the “HTRF avg pIC50 (1 nM)” value in assay [2] amounted to 8.15.

Turning to `Cn1c(=O)c2c(c3cc(Nc4nc(N5C6CCC5CS(=O)(=O)C6)ncc4Cl)ccc31)N[C@@H](C1CC1)C(F)(F)CO2` [Example 12w, (S)-10-((5-chloro-2-(3,3-dioxido-3-thia-8-azabicyclo[3.2.1]octan-8-yl)pyrimidin-4-yl)amino)-2-cyclopropyl-3,3-difluoro-7-methyl-1,2,3,4-tetrahydro-[1,4]oxazepino[2,3-c]quinolin-6(7H)-one], the IC50 in assay [1] is 11 nM. Besides, the “HTRF avg pIC50 (1 nM)” value in assay [2] came to 8.73.

As for `C[C@H]1CCOc2c(c3cc(Nc4ccnc(Cl)c4Cl)ccc3n(C)c2=O)N1` [Example 4a, (S)-10-((2,3-dichloropyridin-4-yl)amino)-2,7-dimethyl-1,2,3,4-tetrahydro-[1,4]oxazepino[2,3-c]quinolin-6(7H)-one], in assay [1], the IC50 is 4900 nM. The “HTRF avg pIC50 (1 nM)” value in assay [2] stood at 6.21.

In the case of `O=c1c2c(c3cc(Nc4nc(N5C6COCC5CC(O)C6)ncc4Cl)ccc3n1CC1CC(F)(F)C1)N[C@@H](C1CC1)CCO2` (stereo partly drawn) [Example 5u, (R)-10-((5-chloro-2-((1R,5S,7S)-7-hydroxy-3-oxa-9-azabicyclo[3.3.1]nonan-9-yl)pyrimidin-4-yl)amino)-2-cyclopropyl-7-((3,3-difluorocyclobutyl)methyl)-1,2,3,4-tetrahydro-[1,4]oxazepino[2,3-c]quinolin-6(7H)-one], the IC50 in assay [1] was 28.8 nM. In assay [2], the “HTRF avg pIC50 (1 nM)” value came to 8.08.

Take `Cn1c(=O)c2c(c3cc(Nc4nc(N5C6COCC5CC(O)C6)ncc4Cl)ccc31)N[C@@H](C1CC1)CCS2` (stereo partly drawn) [Example 15a, (R)-10-((5-chloro-2-((1R,5S,7S)-7-hydroxy-3-oxa-9-azabicyclo[3.3.1]-nonan-9-yl)pyrimidin-4-yl)amino)-2-cyclopropyl-7-methyl-1,2,3,4-tetrahydro-[1,4]thiazepino[2,3-c]quinolin-6(7H)-one]: the IC50 in assay [1] is 28.8 nM. For the same molecule, the “HTRF avg pIC50 (1 nM)” value in assay [2] is given as 8.12.

Turning to `Cn1c(=O)c2c(c3cc(Nc4nc(N5C6COCC5CC(O)C6)ncc4Cl)ccc31)NC(C1CC1)C(F)(F)CO2` [Example 11a, 10-((5-chloro-2-((1R,5S,7s)-7-hydroxy-3-oxa-9-azabicyclo[3.3.1]nonan-9-yl)pyrimidin-4-yl)amino)-2-cyclopropyl-3,3-difluoro-7-methyl-1,2,3,4-tetrahydro-[1,4]oxazepino[2,3-c]quinolin-6(7H)-one], in assay [1], the IC50 was 5.01 nM. Besides, the “HTRF avg pIC50 (1 nM)” value in assay [2] stood at 8.81.

With `Cn1c(=O)c2c(c3cc(Nc4ccnc(Cl)c4C#N)ccc31)N[C@@H](C1CC1)C(F)(F)CO2` [Example 1v, (S)-2-chloro-4-((2-cyclopropyl-3,3-difluoro-7-methyl-6-oxo-1,2,3,4,6,7-hexahydro-[1,4]oxazepino[2,3-c]quinolin-10-yl)amino)nicotinonitrile], in assay [1], the “NanoBRET cell avg pIC50” value was found to be 7.83. Further, the “HTRF avg pIC50 (1 nM)” value in assay [2] was 8.58.

Consider `CC1Nc2c(c(=O)n(C)c3ccc(Nc4nc(N5C[C@H](C)C[C@H](C)C5)ncc4Cl)cc23)C(=O)OC1C` (mixture of isomers) [Example 8p, rac-(2S,3R)-10-((5-chloro-2-((3S,5R)-3,5-dimethylpiperidin-1-yl)pyrimidin-4-yl)amino)-2,3,7-trimethyl-2,3-dihydro-[1,4]oxazepino[6,5-c]quinoline-5,6(1H,7H)-dione or rac-(2S,3S)-10-((5-chloro-2-((3S,5R)-3,5-dimethylpiperidin-1-yl)pyrimidin-4-yl)amino)-2,3,7-trimethyl-2,3-dihydro-[1,4]oxazepino[6,5-c]quinoline-5,6(1H,7H)-dione], for which the results for the IC50 in assay [1] and in assay [2] (HTRF avg pIC50 (1 nM)) were 25700 nM and 275 nM, respectively.

`Cn1c(=O)c2c(c3cc(Nc4nc(N5C6CC7CC5CC(C6)O7)ncc4Cl)ccc31)N[C@@H](C1CC1)CCO2` [Example 5o, (R)-10-((2-(2-oxa-6-azaadamantan-6-yl)-5-chloropyrimidin-4-yl)amino)-2-cyclopropyl-7-methyl-1,2,3,4-tetrahydro-[1,4]oxazepino[2,3-c]quinolin-6(7H)-one]: in assay [1], the IC50 is 89.1 nM. The “HTRF avg pIC50 (1 nM)” value in assay [2] is given as 7.64.

On to `C[C@H]1CCOc2c(c3cc(Nc4nc(-n5ccc(C(F)(F)F)n5)ncc4Cl)ccc3n(C)c2=O)N1` [Example 5c, (S)-10-((5-chloro-2-(3-(trifluoromethyl)-1H-pyrazol-1-yl)pyrimidin-4-yl)amino)-2,7-dimethyl-1,2,3,4-tetrahydro-[1,4]oxazepino[2,3-c]quinolin-6(7H)-one], for which the IC50 in assay [1] is 4680 nM. Besides, the “HTRF avg pIC50 (1 nM)” value in assay [2] was 6.43.

With `Cn1c(=O)c2c(c3cc(Nc4nc(N5C6COCC5CC(O)C6)ncc4Cl)cnc31)N[C@@H](C1CC1)CCO2` (stereo partly drawn) [Example 11b, (R)-10-((5-chloro-2-((1R,5S,7S)-7-hydroxy-3-oxa-9-azabicyclo[3.3.1]nonan-9-yl)pyrimidin-4-yl)amino)-2-cyclopropyl-7-methyl-1,2,3,4-tetrahydro-[1,4]oxazepino[2,3-c][1,8]naphthyridin-6(7H)-one], in assay [1], the IC50 is 32.4 nM. For the same molecule, the “HTRF avg pIC50 (1 nM)” value in assay [2] was found to be 8.16.

Regarding `Cn1c(=O)c2c(c3cc(Nc4ccnc(Cl)c4C#N)ccc31)N[C@@H](C1CC1)COC2` [Example 9b, (S)-2-chloro-4-((2-cyclopropyl-7-methyl-6-oxo-1,2,3,5,6,7-hexahydro-[1,4]oxazepino[6,5-c]quinolin-10-yl)amino)nicotinonitrile], the IC50 in assay [1] was 2000 nM. Moreover, the “HTRF avg pIC50 (1 nM)” value in assay [2] came out at 6.57.

Consider `C[C@H]1COC(=O)c2c(c3cc(Nc4nc(N5C6CCC5CC(F)(F)C6)ncc4Cl)ccc3n(C)c2=O)N1` [Example 8f, (2S)-10-((5-chloro-2-(3,3-difluoro-8-azabicyclo[3.2.1]octan-8-yl)pyrimidin-4-yl)amino)-2,7-dimethyl-2,3-dihydro-[1,4]oxazepino[6,5-c]quinoline-5,6(1H,7H)-dione], for which the IC50 in assay [1] was 6920 nM. For the same molecule, the “HTRF avg pIC50 (1 nM)” value in assay [2] was determined as 6.67.

Take `Cn1c(=O)c2c(c3cc(Nc4nc(N5C6CCC5COC6)ncc4Cl)ccc31)N[C@@H](C1CC1)CCO2` [Example 5l, (R)-10-((2-(3-oxa-8-azabicyclo[3.2.1]octan-8-yl)-5-chloropyrimidin-4-yl)amino)-2-cyclopropyl-7-methyl-1,2,3,4-tetrahydro-[1,4]oxazepino[2,3-c]quinolin-6(7H)-one]: the IC50 in assay [1] is 120 nM. In addition, in assay [2], the “HTRF avg pIC50 (1 nM)” value stood at 7.49.

As for `O=c1c2c(c3cc(Nc4nc(N5C6CCC5COC6)ncc4Cl)ccc3n1CC1CC(F)(F)C1)N[C@@H](C1CC1)CCO2` [Example 5q, (R)-10-((2-(3-oxa-8-azabicyclo[3.2.1]octan-8-yl)-5-chloropyrimidin-4-yl)amino)-2-cyclopropyl-7-((3,3-difluorocyclobutyl)methyl)-1,2,3,4-tetrahydro-[1,4]oxazepino[2,3-c]quinolin-6(7H)-one], in assay [1], the IC50 is 97.7 nM. The “HTRF avg pIC50 (1 nM)” value in assay [2] turned out to be 7.63.
